Measurements: patent publication US20230203044A1, “PYRAZOLO[1,5-D][1,2,4]TRIAZINE-5(4H)-ACETAMIDES AS INHIBITORS OF THE NLRP3 INFLAMMASOME” (JANSSEN PHARMACEUTICA NV, priority 2020, published 2023)

Key:
NLRP3 inflammasome = assay: PBMC assay: IL-1β in LPS-stimulated human PBMCs (MSD); format: cell-based; settings: human PBMCs, 100 ng/ml LPS for 6 hrs, IL-1β in supernatant via MSD, read-out: IL1β IC50
In short: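 Human PBMCs from healthy donors, Ficoll-isolated and cryopreserved, were plated at 7.5×10^4 cells/well in RPMI/10% FBS for 30 min at 37 °C. Cells were then stimulated with 100 ng/ml LPS (final) for 6 h. IL-1β and TNF in supernatants were quantified by MSD immunoassay.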

TNF = assay: PBMC assay: TNF cytokine levels in LPS-stimulated human PBMCs (MSD); format: cell-based; settings: 100 ng/ml LPS for 6 hrs, TNF in supernatant via MSD
In short: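 Cryopreserved healthy-donor human PBMCs (7.5×10^4 cells/well, RPMI + 10% FBS) were preincubated with 1:3 serially diluted compounds for 30 min at 37 °C. They were then stimulated with 100 ng/ml LPS (final) for 6 h. Supernatant TNF was measured by MSD, and EC50 values were derived.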

SMILES	IC50 (NLRP3 inflammasome) [nM]	EC50 (TNF) [nM]
CC(C)c1nn(CC(=O)Nc2ccnc(C(F)F)c2)c(=O)c2cc(C3CC3)nn12 [Final Cpd 130]	530	> 10000
Cc1ncc(NC(=O)Cn2nc(C(C)C)n3nc(C4CC4)cc3c2=O)cn1 [Final Cpd 131]	3570	> 10000
COc1nccc(NC(=O)Cn2nc(C(C)C)n3nc(C4CC4)cc3c2=O)n1 [Final Cpd 132]	720	> 10000
CC(C)c1nn(CC(=O)Nc2ccncc2Cl)c(=O)c2cc(C3CC3)nn12 [Final Cpd 133]	440	≥ 10000
Cc1cnccc1NC(=O)Cn1nc(C(C)C)n2nc(C3CC3)cc2c1=O [Final Cpd 134]	230	> 10000
CC(C)c1nn(CC(=O)Nc2cnccc2Cl)c(=O)c2cc(C3CC3)nn12 [Final Cpd 135]	6930	> 10000
CC(C)c1nn(CC(=O)Nc2ccn3c(F)cnc3c2)c(=O)c2cc(C3CC3)nn12 [Final Cpd 136]	1410	> 10000
Cc1cc(NC(=O)Cn2nc(C(C)C)n3nc(C4CC4)cc3c2=O)nc(C)n1 [Final Cpd 137]	1230	> 10000
Cc1ccncc1NC(=O)Cn1nc(C(C)C)n2nc(C3CC3)cc2c1=O [Final Cpd 138]	> 10000	> 10000
COc1nn(CC(=O)N[C@H]2C[C@@](C)(O)C2)c(=O)c2cc(C3CC3)nn12 [Final Cpd 139]	6560	> 10000
CCc1cc2c(=O)n(CC(=O)N[C@H]3C[C@@](C)(O)C3)nc(C(C)C)n2n1 [Final Cpd 140]	210	> 10000
CCc1cc2c(=O)n(CC(=O)Nc3ccnnc3)nc(C(C)C)n2n1 [Final Cpd 141]	420	> 10000
CC(C)c1cc2c(=O)n(CC(=O)N[C@H]3C[C@@](C)(O)C3)nc(C(C)C)n2n1 [Final Cpd 142]	140	> 10000
CC(C)c1cc2c(=O)n(CC(=O)Nc3ccc4nncn4c3)nc(C(C)C)n2n1 [Final Cpd 143]	100	> 10000
CC(C)c1cc2c(=O)n(CC(=O)Nc3ccnnc3)nc(C(C)C)n2n1 [Final Cpd 144]	320	> 10000
CCCc1cc2c(=O)n(CC(=O)Nc3ccnnc3)nc(C(C)C)n2n1 [Final Cpd 145]	510	> 10000
CCc1cc2c(=O)n(CC(=O)Nc3ccc4nncn4c3)nc(C(C)C)n2n1 [Final Cpd 146]	210	> 10000
CC(C)c1cc2c(=O)n(CC(=O)Nc3ccncn3)nc(N(C)C)n2n1 [Final Cpd 147]	400	> 10000
CC(C)c1cc2c(=O)n(CC(=O)Nc3ccc4nncn4c3)nc(N(C)C)n2n1 [Final Cpd 148]	320	> 10000
CC(C)c1cc2c(=O)n(CC(=O)Nc3ccnnc3)nc(N(C)C)n2n1 [Final Cpd 149]	780	> 10000
CC(C)c1cc2c(=O)n(CC(=O)N[C@H]3C[C@@](C)(O)C3)nc(N(C)C)n2n1 [Final Cpd 150]	360	> 10000
CC(C)c1nn2c(N(C)C)nn(CC(=O)Nc3ccncn3)c(=O)c2c1Br [Final Cpd 151]	> 10000	> 10000
CCc1cc2c(=O)n(CC(=O)Nc3ccnnc3)nc(N(C)C)n2n1 [Final Cpd 152]	860	> 10000
CC(C)c1nn(CC(=O)N[C@H]2C[C@@](C)(O)C2)c(=O)c2cc(C3CC3(F)F)nn12 (stereo partly drawn) [Final Cpd 153]	90	> 10000

SMILES	IC50 (NLRP3 inflammasome) [nM]	EC50 (TNF) [nM]
CC(C)c1cc2c(=O)n(CC(=O)N[C@H]3C[C@@](C)(O)C3)nc(C(C)O)n2n1 (stereo partly drawn) [Final Cpd 154]	3000	> 10000
CC(C)c1cc2c(=O)n(CC(=O)Nc3ccc4nncn4c3)nc(C(C)O)n2n1 (stereo not drawn) [Final Cpd 155]	1140	> 10000
CC(C)c1cc2c(=O)n(CC(=O)Nc3ccncn3)nc(C(C)O)n2n1 (stereo not drawn) [Final Cpd 156]	1960	> 10000
CC(C)c1nn(CC(=O)Nc2ccc3nncn3c2)c(=O)c2cc(C(O)C(F)(F)F)nn12 (stereo not drawn) [Final Cpd 157]	> 10000	> 10000
CC(C)c1nn(CC(=O)N[C@H]2C[C@@](C)(O)C2)c(=O)c2cc(C(O)C(F)(F)F)nn12 (stereo partly drawn) [Final Cpd 158]	> 10000	> 10000
CC(C)c1nn(CC(=O)Nc2ccc3nncn3c2)c(=O)c2cc(CC(F)(F)F)nn12 [Final Cpd 159]	2240	> 10000
CC(C)c1nn(CC(=O)N[C@H]2C[C@@](C)(O)C2)c(=O)c2cc(CC(F)(F)F)nn12 [Final Cpd 160]	> 10000	> 10000
CC(C)c1nn(CC(=O)N[C@H]2C[C@@](C)(O)C2)c(=O)c2cc(C(C)(F)F)nn12 [Final Cpd 161]	110	> 10000
O=C(Cn1nc(C2CC2)n2nc(C3CC3)cc2c1=O)Nc1ccc2nncn2n1 [Final Cpd 163, N-([1,2,4]triazolo[4,3-b]pyridazin-6-yl)-2-(2,7-dicyclopropyl-4-oxopyrazolo[1,5-d][1,2,4]triazin-5(4H)-yl)acetamide]	620	> 10000
CC(C)c1nn(CC(=O)Nc2cc(F)[nH]c(=O)c2)c(=O)c2cc(C3CC3)nn12 [Final Cpd 164]	540	> 10000
CC(C)c1nn(CC(=O)Nc2ccc3nccn3n2)c(=O)c2cc(C3CC3)nn12 [Final Cpd 165]	100	> 10000
CC(C)c1nn(CC(=O)Nc2ccc3nncn3n2)c(=O)c2cc(C3CC3)nn12 [Final Cpd 166, N-([1,2,4]triazolo[4,3-b]pyridazin-6-yl)-2-(2-cyclopropyl-7-isopropyl-4-oxopyrazolo[1,5-d][1,2,4]triazin-5(4H)-yl)acetamide]	44	> 10000
CC(C)c1nn(CC(=O)Nc2ccc3nc(C(F)(F)F)cn3c2)c(=O)c2cc(C3CC3)nn12 [Final Cpd 167]	380	> 10000
CC(C)c1nn(CC(=O)Nc2ccc3nnc(C(F)(F)F)n3n2)c(=O)c2cc(C3CC3)nn12 [Final Cpd 168]	840	> 10000
CC(C)c1nn(CC(=O)Nc2ccc3nnnn3n2)c(=O)c2cc(C3CC3)nn12 [Final Cpd 169]	160	> 10000
CC(C)c1nn(CC(=O)Nc2ccc3nnc(Cl)n3n2)c(=O)c2cc(C3CC3)nn12 [Final Cpd 170]	550	> 10000
Cc1nnc2ccc(NC(=O)Cn3nc(C(C)C)n4nc(C5CC5)cc4c3=O)nn12 [Final Cpd 171]	220	> 10000
CC(C)c1nn(CC(=O)Nc2ccc(C(F)(F)F)nn2)c(=O)c2cc(C3CC3)nn12 [Final Cpd 172, 2-(2-cyclopropyl-7-isopropyl-4-oxopyrazolo[1,5-d][1,2,4]triazin-5(4H)-yl)-N-(6-(trifluoromethyl)pyridazin-3-yl)acetamide]	> 10000	> 10000
CC(C)c1nn(CC(=O)Nc2ccc(I)nn2)c(=O)c2cc(C3CC3)nn12 [Final Cpd 173]	> 10000	> 10000
CC(C)c1nn(CC(=O)Nc2ccc(C(F)F)nn2)c(=O)c2cc(C3CC3)nn12 [Final Cpd 174]	6750	> 10000
CC(C)c1nn(CC(=O)Nc2ccc3nncn3c2)c(=O)c2cc(C(C)(F)F)nn12 [Final Cpd 175, N-([1,2,4]triazolo[4,3-a]pyridin-6-yl)-2-(2-(1,1-difluoroethyl)isopropyl-4-oxopyrazolo[1,5-d][1,2,4]triazin-5(4H)-yl)acetamide]	220	> 10000
CC(C)c1nn(CC(=O)Nc2ccc3nncn3n2)c(=O)c2cc(C(C)(F)F)nn12 [Final Cpd 176]	82	> 10000
C=C(OCC)c1cc2c(=O)n(CC(=O)Nc3ccncn3)nc(C(C)C)n2n1 [Final Cpd 179, 2-(2-(1-ethoxyvinyl)-7-isopropyl-4-oxopyrazolo[1,5-d][1,2,4]triazin-5(4H)-yl)-N-(pyrimidin-4-yl)acetamide]	> 10000	> 10000
CCOC(C)c1cc2c(=O)n(CC(=O)Nc3ccncn3)nc(C(C)C)n2n1 (stereo not drawn) [Final Cpd 180, 2-(2-(1-ethoxyethyl)-74 sopropyl-4-oxopyrazolo[1,5-d][1,2,4]triazin-5(4H)-yl)-N-(pyrimidin-4-yl)acetamide]	> 10000	> 10000
